Laboratory results published in patent US9102648B1, “Bioavailable diacylhydrazine ligands for modulating the expression of exogenous genes via an ecdysone receptor complex” (Intrexon Corporation, priority 2003, dated 2015).

How the values were obtained:
[1] = biological target: T1, Bombyx mori EcR (VP16 fusion, CVBE switch construct) (Bombyx mori, UniProt P49881); test: Z3 Assay (HEK-293 cells with CVBE and 6XEcRE LacZ, β-galactosidase reporter); conditions: for Fold Induction, Z3 Assay, 3.3 uM: 3.3 uM ligand; for Fold Induction, Z3 Assay, 3.3 uM / Fold Induction, Z3 Assay, 33 uM: ligand treated / DMSO treated cells; for Fold Induction, Z3 Assay, 3.3 uM / Fold Induction, Z3 Assay, 33 uM / EC50: average of two wells; for Fold Induction, Z3 Assay, 33 uM: 33 uM ligand; for Z3 assay Rel Max FI: maximum fold induction at any concentration relative to that of GS-E ligand; for Z3 assay Rel Max FI / EC50: HEK-293 Z3 cells; for EC50: read-out: Z3 assay EC50, β-galactosidase reporter
T1 sequence (P49881 86-606): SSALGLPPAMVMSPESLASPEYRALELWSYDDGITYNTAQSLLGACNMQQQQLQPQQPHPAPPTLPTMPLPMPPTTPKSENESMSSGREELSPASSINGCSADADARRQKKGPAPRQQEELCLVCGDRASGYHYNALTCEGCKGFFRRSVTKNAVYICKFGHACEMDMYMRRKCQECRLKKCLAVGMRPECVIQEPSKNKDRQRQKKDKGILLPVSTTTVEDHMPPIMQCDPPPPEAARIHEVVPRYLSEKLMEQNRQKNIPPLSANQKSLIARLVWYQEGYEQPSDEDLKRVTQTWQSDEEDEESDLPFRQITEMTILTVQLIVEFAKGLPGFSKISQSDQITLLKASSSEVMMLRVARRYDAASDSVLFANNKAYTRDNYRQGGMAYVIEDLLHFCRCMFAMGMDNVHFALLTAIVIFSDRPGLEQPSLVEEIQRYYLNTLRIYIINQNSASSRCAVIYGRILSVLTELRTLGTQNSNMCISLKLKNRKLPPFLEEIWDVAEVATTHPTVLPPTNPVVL
T1 sequence (P19793 1-462 partner): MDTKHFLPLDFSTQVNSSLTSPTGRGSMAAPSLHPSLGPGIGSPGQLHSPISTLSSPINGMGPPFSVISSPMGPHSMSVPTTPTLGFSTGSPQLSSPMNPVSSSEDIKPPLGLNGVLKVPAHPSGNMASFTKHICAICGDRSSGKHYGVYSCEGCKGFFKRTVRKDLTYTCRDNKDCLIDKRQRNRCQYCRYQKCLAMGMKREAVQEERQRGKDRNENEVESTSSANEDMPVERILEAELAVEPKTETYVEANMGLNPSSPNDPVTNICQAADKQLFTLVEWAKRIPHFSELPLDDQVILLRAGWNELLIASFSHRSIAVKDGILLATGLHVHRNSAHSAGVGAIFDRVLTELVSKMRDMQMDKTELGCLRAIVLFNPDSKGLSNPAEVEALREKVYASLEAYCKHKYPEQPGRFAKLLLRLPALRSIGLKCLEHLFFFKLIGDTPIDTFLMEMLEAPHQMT

[2] = biological target: GAL4 DBD-CfEcR(DEF)/VP16AD-MmRXRE (Choristoneura fumiferana, UniProt O77240); test: 13B3 Assay (CHO stable cell line, luciferase reporter); conditions: for Fold Induction, 13B3 Assay, 3.3 uM: 3.3 uM ligand; for Fold Induction, 13B3 Assay, 3.3 uM / Fold Induction, 13B3 Assay, 33 uM: RLU ligand treated / RLU DMSO treated cells; for Fold Induction, 13B3 Assay, 3.3 uM / Fold Induction, 13B3 Assay, 33 uM / EC50: average of two wells; for Fold Induction, 13B3 Assay, 33 uM: 33 uM ligand; for 13B3 assay Rel Max FI: maximum fold induction at any concentration relative to that of GS-E ligand, CHO 13B3 cells; for EC50: read-out: 13B3 EC50, CHO 13B3 stable cell line, luciferase reporter, 48 h
Procedure, shortened: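 Ligands dosed at 8 levels from 33 to 0.01 μM (DMSO stocks diluted 300-fold) onto the 13B3 CHO line carrying GAL4-DBD/CfEcR-DEF, VP16/MmRXR-DE and a GAL4-responsive luciferase gene.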

Structure (SMILES)	Fold Induction, Z3 Assay, 3.3 uM [1]	Fold Induction, Z3 Assay, 33 uM [1]	Z3 assay Rel Max FI [1]	EC50 [1] [nM]	Fold Induction, 13B3 Assay, 3.3 uM [2]	Fold Induction, 13B3 Assay, 33 uM [2]	13B3 assay Rel Max FI [2]	EC50 [2] [nM]
CCc1ccc(C(=O)NN(C(=O)c2cc(C)cc(C)c2)C(C)(C)C)cc1Cl [RG-101864]	796	494	1.075	245	5959	349	0.460	288
CC(C)(C)N(NC(=O)c1c(F)cccc1F)C(=O)c1cc(Cl)cc(Cl)c1 [RG-100801]	–	153	–	891	–	16	–	–
COc1cccc(C(=O)NN(C(=O)c2cc(Cl)cc(Br)c2)C(C)(C)C)c1C [RG-101408]	780	398	1.118	148	–	326	–	–
Cc1cc(C)cc(C(=O)N(NC(=O)c2cc3c(cc2Cl)OCO3)C(C)(C)C)c1 [RG-101171]	–	268	–	3240	–	8453	–	–
COCc1c(OC)cccc1C(=O)NN(C(=O)c1cc(C)cc(C)c1)C(C)(C)C [RG-115117]	7	–	0.36	3930	1	–	0	> 50000
COc1cc(C)ccc1C(=O)N(NC(=O)c1cccc(OC)c1C)C(C)(C)C [RG-100769]	1096	542	1.109	219	1014	386	0.685	337
CCc1ccc(C(=O)NN(C(=O)c2cc(C)c(C)c(Cl)c2)C(C)(C)C)cc1 [RG-101863]	832	374	0.953	257	3187	207	0.837	728
Cc1cc(C)cc(C(=O)N(NC(=O)c2ccc3c(c2Br)OCCO3)C(C)(C)C)c1 [RG-101340]	866	432	1.126	234	675	879	0.364	106
COc1cccc(C(=O)NN(C(=O)c2cc(C)ccc2Cl)C(C)(C)C)c1Cl [RG-101248]	–	375	–	1440	–	415	–	–
CCc1ccc(C(=O)NN(C(=O)c2cc(C)cc(Cl)c2)C(C)(C)C)cc1 [RG-101774]	631	429	0.943	155	987	526	0.657	327
